Assays:
Assay type in all cases: in vivo, Sprague Dawley rats
[1] = test system: heart failure rats; test: Hemodynamics (heart rate, arterial blood pressure, left ventricular pressure) in myocardial infarction heart failure rats; design: Dp/dt max / Dp/dt min: unit not given here; conditions: 3 mpk p.o. qd for 4 weeks; one day after last dose; Mean ± SEM, N = 7
Method: (§1) • 1. Vehicle (0.5% CMC Na): formulation: 5 g of CMC Na was weighed out, and the volume was made up to 1000 mL with ddwater; the vehicle was obtained by stirring with a stirrer until the CMC Na was dissolved. • 2. EG017: formulation: a proper amount of the sample was weighed out, and a formula amount of the 0.5% CMC Na was added to prepare 1 mg/kg, 3 mg/kg and 10 mg/kg compound; the formulations were obtained by stirring with a stirrer until the sample was dissolved. Administration regimen: one week after animal modeling, sham/myocardial infarction rats were grouped and administered orally once daily for 28 consecutive days in a volume of 10 mL/kg.
(§2) After adaptive feeding, on the day of the experiment, the animals were anesthetized by intraperitoneal injection of pentobarbital sodium injection (60 mpk), atropine (0.5 mpk) was injected intraperitoneally to eliminate phlegm, and then the trachea was connected with a breathing machine to assist breathing; the chest was cut open from the place between the third rib and the fourth rib and then expanded with a chest expander; the pericardium was torn open, the left anterior descending coronary artery was ligated with 5-0 silk thread, the ribs and skin were sutured, and then the animals were placed on a heat preservation blanket for recovery after operation. The animals in the Sham group were also subjected to the same operation, except that the ligation with silk thread was not performed. After the operation was finished, all the animals are subjected to intramuscular injection of meloxicam (1 mpk) and gentamicin hydrochloride injection (8 mpk) for analgesia and anti-infection. One day before administration, the rats were subjected to cardiac ultrasonography after anesthesia by isoflurane inhalation (1.5%-5% v/v in oxygen), and the ligation was successful if there was no significant contraction of the anterior wall of the left ventricle, the left ventricular cavity was enlarged, and there was a 30% decrease in left ventricular ejection fraction compared to the normal control group. Successfully modeled rats were selected for subsequent experiments (note: ensure that there were 7 animals in each group after modeling, and 7 animals in the sham group). The rats in each group were subjected to intragastric administration of therapeutic agent once daily for four consecutive weeks. During the experiment, the living state of the animals was observed, and the abnormal conditions were recorded; endpoint index detection and sample collection were performed one day after the last dose.
(§3) One week after the modeling of animals, the isoflurane was used for anesthetizing the rats, the Vevo small animal ultrasonic imaging system was used for checking the function of the left ventricle of the model rats, and successful modeling was determined if the LVFE % was reduced by 30%.
(§4) Except for the Sham group, the animals were divided into 9 groups according to LVEF % and body weight, 7 rats in each group. […]

[2] = test system: heart failure rats; test: Body weight and organ weight index (heart weight index, brain/heart weight ratio) in myocardial infarction heart failure rats; design: Brain weight/heart weight: unit not given here; conditions: 3 mpk p.o. qd for 4 weeks; endpoint; Mean ± SEM, N = 7
Method: as §1, with “mL/kg. […]” for “mL/kg.”
One week after the modeling of animals, the isoflurane was used for anesthetizing the rats, the Vevo small animal ultrasonic imaging system was used for checking the function of the left ventricle of the model rats, and successful modeling was determined if the LVFE % was reduced by 30%. […]

[3] = test system: heart failure rats; test: Echocardiography of left ventricular function in myocardial infarction heart failure rats; conditions: 3 mpk p.o. qd for 4 weeks; one day after last dose; Mean ± SEM, N = 7
Method: as §1, §2, §3, §4

In the case of `C[C@@](COc1ccc(C#N)cc1)(OC(=O)c1cccnc1)C(=O)Nc1ccc(C#N)c(C(F)(F)F)c1` [EG017, (S)-1-((4-cyano-3-(trifluoromethyl)phenyl)amino)-3-(4-cyanophenoxy)-2-methyl-1-oxopropan-2-yl nicotinate], the DBP [1] is reported as 76.1 ± 3.02 mmHg, the Dp/dt max [1] is reported as 6630 ± 432 and the Dp/dt min [1] is reported as −6603 ± 707. For the same compound, the HR [1] was 352 ± 23.3 BPM, the LVSP [1] was 98.5 ± 3.89& mmHg and the MBP [1] was 88.3 ± 3.39 mmHg. For the same compound, the SBP [1] was 98.7 ± 3.62 mmHg, the Brain weight/heart weight [2] was 78.3 ± 4.31 and the Heart weight index [2] was 0.376 ± 0.025 g/100 g body weight. For the same compound, the CO [3] was 85.6 ± 9.55 mL/min, the EDV [3] was 477 ± 48.2 µL and the ESV [3] was 238 ± 52.0 µL. The FS [3] was 29.0 ± 3.51 %, the LV mass [3] was 1497 ± 145^ mg and the LVEF [3] was 52.7 ± 5.61 %. For the same compound, the LVPWTd [3] was 2.17 ± 0.17 mm, the LVPWTs [3] was 2.66 ± 0.22 mm and the SV [3] was 238 ± 21.1 µL.

Source: patent US20230390275A1, “APPLICATION OF ESTER GROUP-[…] PR[…] AND METABOLITE THEREOF IN PREPARATION OF DRUG FOR TREATING HEART FAILURE” (CHANGCHUN GENESCIENCE PHARMACEUTICAL CO., LTD., priority 2020, published 2023)
